Article PMC8231113, “Protein Secondary Structure Affects Glycan Clustering in Native Mass Spectrometry” (Life, 2021)
Like-named read-outs stand apart in the source and are kept apart here.

Assays:
GII.4 Saga P dimer = GII.4 Saga P dimer (Norovirus GII.4 (human norovirus), UniProt B5BTR7); assay: Native MS, specific glycan binding to P dimer after reference protein correction; set-up: species or system human norovirus (hNoV); conditions: for Kd: read-out: KD for HBGA B
Method: (§1) Prior to MS analysis, purified P dimers were buffer exchanged to 150 mM ammonium acetate (Sigma-Aldrich, reagent grade ≥98%) at pH 7 via centrifugal filter units at 12,000× g at 4 °C (Vivaspin 500, MWCO 10000, Sartorius). Glycans for native MS analysis were mixed with 1 µM (per monomer) purified GII.4 Saga P dimer and 3 µM of the reference proteins at indicated concentrations. Native mass spectra were measured at room temperature in positive ion mode on a high mass modified LCT Premier mass spectrometer (Waters/Micromass, UK and MS Vision, the Netherlands) with a nano-ESI source. In house-made gold-coated electrospray capillaries were used for direct-sample infusion without any accessory chromatographic separation. The voltages and pressures were optimized for non-covalent protein complexes. The gas pressure used in the source hexapole was set between 6.5 and 6.8 × 10^−2 mbar argon optimized for minimal complex dissociation and the backing pressure of the source roughing pump was set between 7.0 and 8.5 mbar. Spectra were recorded with applied voltages for the capillary and cone of 1.20 kV and 240 V, respectively. Note that charge state distributions for P dimers were sometimes slightly shifted as was the degree of glycan clustering per charge state. These changes were highly variable and not quantifiable.
(§2) For calibration of the raw data, a 25 mg/mL cesium iodide spectrum from the same day was used. MassLynx V4.1 (Waters, Manchester, UK) was used to assign peak series to protein species and to determine the mass after minimal smoothing. Furthermore, OriginPro 2016 SR2 (OriginLab, Northampton, MA, USA) was used for spectral deconvolution and curve fitting. Correction for nonspecific protein-ligand clustering was performed as described. Corrected peak areas were averaged and normalized to the free-protein signal. Data were based on at least three independent measurements. Python code Panda and Numpy package were used to calculate the specific binding of P dimers according to the glycan clustering ratio obtained from the selected reference protein candidates. Seaborn and matplotlib.pyplot package were imported into a python script to plot the results. The module of sklearn.linear model was applied for linear regression. The matplotlib and heatmap package were used to plot the heatmap.
Data from native ESI MS measurements were translated into dissociation constants (KD values). The detailed calculations were based on the equations listed below. A protein (P) and a glycan ligand (L) form a complex through non-covalent interactions leading to a reversible association described by (Equation (1)):(1) P+L⇌PL when equilibrium is reached, the KD can be calculated directly from the concentrations via the law of mass action (Equation (2)):(2) KD=[Pfree][Lfree]/[PL]
(§3) Theoretically, the KD is calculated by measuring the concentration of the three components (Pfree, Lfree, PL) in solution. Usually, these values are only indirectly accessible because they require ligand titration up to binding saturation. However, native MS allows for the directly measurement of Pfree and PL, from which Lfree can be calculated using the input concentrations. In the present work, the non-covalent interaction was measured in the gas phase assuming identical ESI and detection efficiency for free and glycan-associated proteins, both for the analyte and the reference protein. […] For P dimers, the equations reflect glycan binding to the individual monomers assuming that binding sites on each monomer are equal and independent.
Using R described in Equation (3), the KD calculation can be re-written into Equation (4) with the known initial concentration of glycan ligand [L0] and protein [P0], adapted from Sun et al.:(3) R=PLequil∕Pequil=∑nA(PL^n+)∕n∕∑nA(P^n+)∕n (4) KD =L0−RP0/1+R/R […]

[1] = biological target: wildtype GII.4 Saga P dimer; conditions: wildtype P dimer; read-out: KD determined by NMR; cited from earlier work
[2] = biological target: T1, L-lactic dehydrogenase from rabbit muscle (LDH) (Oryctolagus cuniculus, UniProt P13491); assay: Native MS glycan clustering to reference protein LDH; format: binding; conditions: on LDH
T1 construct: L-lactic dehydrogenase from rabbit muscle (LDH, CAS number 9001-60-9); purchased Sigma-Aldrich (Merck, Germany); host or cells: rabbit muscle
Method: as §1, §2, §3
Using R described in Equation (3), the KD calculation can be re-written into Equation (4) with the known initial concentration of glycan ligand [L0] and protein [P0], adapted from Sun et al.:(3) R=PLequil∕Pequil=∑nA(PL^n+)∕n∕∑nA(P^n+)∕n (4) KD =L0−RP0/1+R/R
For the carbohydrate-binding experiments, it was essential to keep the initial protein concentrations and pH value constant during the analysis of the protein-carbohydrate solutions. While acidification occurs in any ESI droplet, the remaining solution in the capillary changes pH over time. Therefore, accumulated spectra were obtained within 10 min after the voltages were applied to minimize the influence of pH changes during the measurements. […]

Q: Which “specific binding after ADH based protein clustering correction” value (GII.4 Saga P dimer; Gb4: any listed glycan concentration, HBGA B: 500 µM) does the source give for `CC(=O)N[C@H]1C(O)O[C@H](CO)[C@@H](O)[C@@H]1O[C@@H]1O[C@H](CO)[C@H](O)[C@H](O[C@H]2O[C@H](CO)[C@H](O)[C@H](O)[C@H]2O)[C@H]1O[C@@H]1O[C@@H](C)[C@@H](O)[C@@H](O)[C@@H]1O` (some centres unmarked) [HBGA B, Galα1-3(Fucα1-2)Galβ1-3GlcNAc] here?
A: a single binding event

Q: And the Kd (GII.4 Saga P dimer; correction with ref. protein ADH)?
A: 24000 ± 16000 µM

Q: What about the Kd (GII.4 Saga P dimer; correction with ref. protein CA) of the same compound?
A: 400 ± 100 µM

Q: What about the Kd (GII.4 Saga P dimer; correction with ref. protein Cyt c) of the same compound?
A: 160 ± 50 µM

Q: And the Kd (GII.4 Saga P dimer; correction with ref. protein GFP)?
A: 900 ± 350 µM

Q: What about the Kd (GII.4 Saga P dimer; correction with ref. protein Myo) of the same compound?
A: 250 ± 100 µM

Q: What about the Kd (GII.4 Saga P dimer; correction with ref. protein Ubq) of the same compound?
A: 200 ± 130 µM

Q: What about the “Bound number of carbohydrates on Saga P dimer” value (from here on “Bound number … on Saga P dimer”) (GII.4 Saga P dimer; ref. protein ADH, glycan 100 µM) of the same compound?
A: 0

Q: And the “Bound number … on Saga P dimer” value (GII.4 Saga P dimer; ref. protein ADH, glycan 200 µM)?
A: 0

Q: And the “Bound number … on Saga P dimer” value (GII.4 Saga P dimer; ref. protein ADH, glycan 300 µM)?
A: 0

Q: What about the “Bound number … on Saga P dimer” value (GII.4 Saga P dimer; ref. protein ADH, glycan 400 µM) of the same compound?
A: 0

Q: And the “Bound number … on Saga P dimer” value (GII.4 Saga P dimer; ref. protein ADH, glycan 500 µM)?
A: 1

Q: And the “Bound number … on Saga P dimer” value (GII.4 Saga P dimer; ref. protein CA, glycan 100 µM)?
A: 1

Q: What about the “Bound number … on Saga P dimer” value (GII.4 Saga P dimer; ref. protein CA, glycan 200 µM) of the same compound?
A: 2

Q: What about the “Bound number … on Saga P dimer” value (GII.4 Saga P dimer; ref. protein CA, glycan 300 µM) of the same compound?
A: 2

Q: And the “Bound number … on Saga P dimer” value (GII.4 Saga P dimer; ref. protein CA, glycan 400 µM)?
A: 2

Q: And the “Bound number … on Saga P dimer” value (GII.4 Saga P dimer; ref. protein CA, glycan 500 µM)?
A: 2

Q: What about the “Bound number … on Saga P dimer” value (GII.4 Saga P dimer; ref. protein Cyto c, glycan 100 µM) of the same compound?
A: 2

Q: What about the “Bound number … on Saga P dimer” value (GII.4 Saga P dimer; ref. protein Cyto c, glycan 200 µM) of the same compound?
A: 3

Q: What about the “Bound number … on Saga P dimer” value (GII.4 Saga P dimer; ref. protein Cyto c, glycan 300 µM) of the same compound?
A: 4

Q: And the “Bound number … on Saga P dimer” value (GII.4 Saga P dimer; ref. protein Cyto c, glycan 400 µM)?
A: 4

Q: What about the “Bound number … on Saga P dimer” value (GII.4 Saga P dimer; ref. protein Cyto c, glycan 500 µM) of the same compound?
A: 4

Q: What about the “Bound number … on Saga P dimer” value (GII.4 Saga P dimer; ref. protein GFP, glycan 100 µM) of the same compound?
A: 1

Q: What about the “Bound number … on Saga P dimer” value (GII.4 Saga P dimer; ref. protein GFP, glycan 200 µM) of the same compound?
A: 1

Q: What about the “Bound number … on Saga P dimer” value (GII.4 Saga P dimer; ref. protein GFP, glycan 300 µM) of the same compound?
A: 2

Q: And the “Bound number … on Saga P dimer” value (GII.4 Saga P dimer; ref. protein GFP, glycan 400 µM)?
A: 2

Q: And the “Bound number … on Saga P dimer” value (GII.4 Saga P dimer; ref. protein GFP, glycan 500 µM)?
A: 2

Q: And the “Bound number … on Saga P dimer” value (GII.4 Saga P dimer; ref. protein LDH, glycan 100 µM)?
A: 0

Q: And the “Bound number … on Saga P dimer” value (GII.4 Saga P dimer; ref. protein LDH, glycan 200 µM)?
A: 0

Q: What about the “Bound number … on Saga P dimer” value (GII.4 Saga P dimer; ref. protein LDH, glycan 300 µM) of the same compound?
A: 0

Q: What about the “Bound number … on Saga P dimer” value (GII.4 Saga P dimer; ref. protein LDH, glycan 400 µM) of the same compound?
A: 0

Q: And the “Bound number … on Saga P dimer” value (GII.4 Saga P dimer; ref. protein LDH, glycan 500 µM)?
A: 1

Q: What about the “Bound number … on Saga P dimer” value (GII.4 Saga P dimer; ref. protein Myo, glycan 100 µM) of the same compound?
A: 2

Q: What about the “Bound number … on Saga P dimer” value (GII.4 Saga P dimer; ref. protein Myo, glycan 200 µM) of the same compound?
A: 3

Q: And the “Bound number … on Saga P dimer” value (GII.4 Saga P dimer; ref. protein Myo, glycan 300 µM)?
A: 3

Q: What about the “Bound number … on Saga P dimer” value (GII.4 Saga P dimer; ref. protein Myo, glycan 400 µM) of the same compound?
A: 3

Q: And the “Bound number … on Saga P dimer” value (GII.4 Saga P dimer; ref. protein Myo, glycan 500 µM)?
A: 4

Q: What about the “Bound number … on Saga P dimer” value (GII.4 Saga P dimer; ref. protein Ubq, glycan 100 µM) of the same compound?
A: 2

Q: And the “Bound number … on Saga P dimer” value (GII.4 Saga P dimer; ref. protein Ubq, glycan 200 µM)?
A: 3

Q: And the “Bound number … on Saga P dimer” value (GII.4 Saga P dimer; ref. protein Ubq, glycan 300 µM)?
A: 4

Q: And the “Bound number … on Saga P dimer” value (GII.4 Saga P dimer; ref. protein Ubq, glycan 400 µM)?
A: 4

Q: And the “Bound number … on Saga P dimer” value (GII.4 Saga P dimer; ref. protein Ubq, glycan 500 µM)?
A: 4

Q: What about the “Bound number … on Saga P dimer” value (GII.4 Saga P dimer; ref. protein apo-TFF, glycan 100 µM) of the same compound?
A: 1

Q: And the “Bound number … on Saga P dimer” value (GII.4 Saga P dimer; ref. protein apo-TFF, glycan 200 µM)?
A: 1

Q: What about the “Bound number … on Saga P dimer” value (GII.4 Saga P dimer; ref. protein apo-TFF, glycan 300 µM) of the same compound?
A: 1

Q: And the “Bound number … on Saga P dimer” value (GII.4 Saga P dimer; ref. protein apo-TFF, glycan 400 µM)?
A: 1

Q: And the “Bound number … on Saga P dimer” value (GII.4 Saga P dimer; ref. protein apo-TFF, glycan 500 µM)?
A: 2

Q: What about the Kd [1] of the same compound?
A: 12000 µM

Q: What about the “Glycan-Clustering Ratio R” value ([2]; 100 µM glycan) of the same compound?
A: 0.38±0.03

Q: What about the “Glycan-Clustering Ratio R” value ([2]; 200 µM glycan) of the same compound?
A: 0.54±0.05

Q: And the “Glycan-Clustering Ratio R” value ([2]; 300 µM glycan)?
A: 0.69±0.02

Q: What about the “Glycan-Clustering Ratio R” value ([2]; 400 µM glycan) of the same compound?
A: 0.77±0.05

Q: And the “Glycan-Clustering Ratio R” value ([2]; 500 µM glycan)?
A: 1.02 ± 0.04
